According to ChEMBL document CHEMBL5726535, “Use of agonists of formyl peptide receptor 2 for treating ocular inflammatory diseases” (2019):

Molecular target: T1, N-formyl peptide receptor 2 (Homo sapiens, UniProt P25090)
T1 sequence (P25090 whole entry): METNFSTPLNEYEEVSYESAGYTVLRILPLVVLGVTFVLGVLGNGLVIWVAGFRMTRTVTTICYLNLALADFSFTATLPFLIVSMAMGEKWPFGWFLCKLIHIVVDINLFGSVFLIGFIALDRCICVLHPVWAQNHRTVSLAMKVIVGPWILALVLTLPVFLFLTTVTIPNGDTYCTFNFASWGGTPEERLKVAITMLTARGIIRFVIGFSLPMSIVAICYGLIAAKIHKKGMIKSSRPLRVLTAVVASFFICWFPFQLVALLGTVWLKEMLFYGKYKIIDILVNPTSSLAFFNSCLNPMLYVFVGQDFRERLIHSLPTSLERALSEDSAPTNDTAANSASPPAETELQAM
Experiment: FLIPR: HEK-Gα16 cells stably expressing the human FPR2 receptor was utilized. Cells were plated into 384-well poly-D-lysine coated plates at a density of 18,000 cells per well one day prior to use. The growth media was DMEM medium supplemented with 10% fetal bovine serum (FBS), 1% antibiotic-antimycotic, 50 μg/ml hygromycin, and 400 μg/ml geneticin. On the day of the experiment, the cells were …
Description: FLIPR: HEK-Gα16 cells stably expressing the human FPR2 receptor was utilized. Cells were plated into 384-well poly-D-lysine coated plates at a density of 18,000 cells per well one day prior to use. The growth media was DMEM medium supplemented with 10% fetal bovine serum (FBS), 1% antibiotic-antimycotic, 50 μg/ml hygromycin, and 400 μg/ml geneticin. On the day of the experiment, the cells were washed twice with Hank's Balanced Salt Solution supplemented with 20 mM HEPES (HBSS/hepes buffer). The cells were then dye loaded with 2 μM Fluo-4 diluted in the HBSS/Hepes buffer and incubated at 37° C. for 40 minutes. Extracellular dye was removed by washing the cell plates four times prior to placing the plates in the FLIPR (Fluorometric Imaging Plate Reader, Molecular Devices). Ligands were diluted in HBSS/Hepes buffer and prepared in 384-well microplates.

NC(=O)C1C(C(=O)Nc2ccc(Br)cc2)C2CCC1C21CC1 (single isomer, unassigned)
EC50: < 1 nM
